# Data published in PubChem BioAssay (NCI).
#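 Compound exposure: 48 hours, 5 concentrations, 96-well plates. TGI denotes the concentration required for complete inhibition of growth.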
# Assays:
# Test in all cases: NCI anticancer screen, dose series, 48 h
# [1] = tested on: CAKI-1 renal
# [2] = tested on: HCT-116 colon
# [3] = tested on: HOP-62 NSCLC
# [4] = tested on: HT29 colon
# [5] = tested on: IGROV1 ovarian
# [6] = tested on: K-562 leukemia
# [7] = tested on: LOX IMVI melanoma
# [8] = tested on: M14 melanoma
# [9] = tested on: MDA-N
# [10] = tested on: NCI-H226 lung
# [11] = tested on: RPMI-8226 leukemia
# [12] = tested on: SN12C renal
# [13] = tested on: SNB-75 CNS
# [14] = tested on: SR leukemia
# [15] = tested on: U251 CNS
# [16] = tested on: UACC-257 melanoma
# [17] = tested on: HL-60(TB) leukemia
# [18] = tested on: NCI-H522 lung
# [19] = tested on: BT-549 breast
SMILES,TGI [1] [µM],TGI [2] [µM],TGI [3] [µM],TGI [4] [µM],TGI [5] [µM],TGI [6] [µM],TGI [7] [µM],TGI [8] [µM],TGI [9] [µM],TGI [10] [µM],TGI [11] [µM],TGI [12] [µM],TGI [13] [µM],TGI [14] [µM],TGI [15] [µM],TGI [16] [µM],TGI [17] [µM],TGI [18] [µM],TGI [19] [µM]
O=C1C2=Cc3ccccc3OC2(O)Oc2ccccc21 (configuration not stated),> 100,> 100,> 100,> 100,> 100,> 100,> 100,> 100,> 100,> 100,> 100,> 100,> 100,> 100,> 100,> 100,,,
O=c1[nH]c2cc([N+](=O)[O-])ccc2nc1/C(=N/Nc1ccccc1)C(O)c1ccco1 (configuration not stated),> 100,> 100,> 100,> 100,> 100,> 100,> 100,> 100,,76.1,> 100,> 100,> 100,> 100,> 100,> 100,> 100,> 100,
CC(C)(C)C1CCC2c3c([nH]c4ncccc34)C3C(=O)N(c4ccccc4)C(=O)C3C2C1 (configuration not stated),> 100,> 100,> 100,> 100,> 100,> 100,> 100,> 100,,> 100,> 100,> 100,> 100,> 100,> 100,> 100,> 100,> 100,
O=C(Cc1nc2sc3c(c2c(=O)[nH]1)CCCC3)Nc1ccccc1,> 100,> 100,> 100,> 100,> 100,> 100,> 100,> 100,,> 100,> 100,> 100,53.6,,> 100,,> 100,> 100,
N#C/C(c1nc2ccccc2[nH]1)=c1\s/c(=C(/N)O)c(=N)n1-c1ccccc1,> 100,> 100,> 100,> 100,> 100,> 100,> 100,> 100,,> 100,,> 100,> 100,,> 100,> 100,> 100,> 100,
C=C1[C@H]2O[C@H]2[C@@H](OC(C)=O)[C@@]2(C)[C@@H](OC(C)=O)C[C@@H](OC(=O)CCC)[C@@](C)(O)[C@@H]2[C@@H](OC(C)=O)[C@]2(O)[C@@H](C)C(=O)O[C@H]2[C@H]1Cl,> 100,> 100,> 100,> 100,,> 100,,> 100,> 100,0.818,> 100,> 100,> 100,,> 100,> 100,> 100,> 100,> 100
COc1ccc2c3c([nH]c(=O)c2c1C(=O)O)-c1ccccc1CC3,> 100,> 100,> 100,> 100,> 100,> 100,> 100,> 100,,> 100,> 100,> 100,> 100,> 100,> 100,,> 100,> 100,
N#Cc1ccc(/C=C(/C(=O)c2ccccc2)c2ccccc2)cc1,32.1,11.3,40.2,22.1,> 57.4,> 24.7,10.6,27.8,,31.5,8.82,25,> 57.2,8.4,25,29.6,9.81,29.2,
COCCOC(=O)NCn1cc(-c2ccccc2)nn1,> 100,> 100,> 100,> 100,> 100,> 100,> 100,> 100,,> 100,> 100,> 100,,> 100,> 100,> 100,> 100,> 100,> 100
Cc1ccc(/C=C/C(=N/NC(=O)N/N=C(/C=C/c2ccc(C)cc2)C(C)C)C(C)C)cc1,> 10,> 10,> 10,> 10,,> 10,,> 10,> 10,> 10,> 10,> 10,,> 10,> 10,> 10,> 10,> 10,> 10
